Data taken from patent US20220144902A1, “METHOD FOR INDUCING MUSCULAR CELLS USING CELLS IN SPOT URINE” (NATIONAL CENTER OF NEUROLOGY AND PSYCHIATRY, priority 2018, published 2022).

Columns and labels:
[1] = test system: MYOD1-positive urine-derived cells; assay: Promotion of myotube induction by low molecular compounds, myosin heavy chain immunocytochemistry; type: cell-based, human; details: compound added to differentiation medium with doxycycline; FIG. 3A 1 μM, FIG. 3B 10 μM
Procedure: (§1) The MYOD1-positive urine-derived cells were plated onto a collagen-coated culture dish or plate and cultured in a differentiation medium supplemented with doxycycline (e.g., 1 μg/ml) (the medium containing high-glucose-containing DMEM with GlutaMAX-I (Thermo Fisher Scientific; 10569-010), 5% horse serum, ITS Liquid Media Supplement (Sigma; 13146), and 1 μg/ml doxycycline) to induce the myotubes. Whether or not muscular differentiation could be promoted with the addition of a low molecular compound in a compound library (Sigma; S990043-EPI1) to the differentiation medium was examined. The low molecular compound was added at a final concentration of 0.1, 1, or 10 μM. Myotube induction was evaluated by immunocytochemistry and Western blotting.
For immunocytochemistry, cultured cells were washed in PBS, fixed in 4% paraformaldehyde, and then incubated with the addition of 0.1% Triton-X at room temperature for 10 minutes. The anti-myosin heavy chain antibody (1:50, R&D, Minneapolis, U.S.A.; MAB4470) and the anti-dystrophin antibody (1:30, Novocastra, Newcastle, UK; NCL-DYS1) were used as primary antibodies, and Alexa Fluor 546 goat anti-mouse IgG (H+L) (1:300, Invitrogen; A11003) was used as a secondary antibody. Nuclear staining was performed with the use of Hoechst 33342. An image was obtained using a fluorescence microscope (BZ-9000 or BZ-X800, KEYENCE, Osaka, Japan) and analyzed using the BZ-X Analyzer (KEYENCE).
As a result, it was founded that a degree of muscular differentiation evaluated in terms of the myosin heavy chain protein expression level by immunocytochemistry was enhanced to a significant extent with the addition of the epigenetic regulatory compound(s) to the differentiation medium (FIGS. 3 and 4). […] Also, effects of histone methyltransferase inhibitors (GSK343, SGC707, furamidine dihydrochloride, UNC2327, E7438, and MI-2 (menin-MLL inhibitor)), histone demethylase inhibitors (IOX 1 and GSK-J1), histone deacetylase (HDAC) inhibitors (VORINOSTAT, LMK-235, CAY10603, and BRD73954), SIRT2 inhibitor (SirReal 2), and PARP inhibitor (EB47) were observed. In FIG. 3, a horizontal axis represents a type of a compound added, and a vertical axis represents an area of a myosin heavy chain-positive region determined by immunocytochemistry. […] Statistical analysis was performed by a Kruskal-Wallis test at a significance level of p<0.05. “*,” “**,” and “***” indicate p<0.05, p<0.01, and p<0.001, respectively.

[2] = test system: myotubes induced from urine-derived cells obtained from 4 healthy subjects; assay: Promotion of myotube induction, Western blotting of myosin heavy chain and dystrophin; type: cell-based, human; details: in the presence of DZNep; urine-derived cells from 4 healthy subjects
Procedure: as §1
The effects of DZNep on promoting myotube induction were also examined by Western blotting. […] The total protein concentration was measured using the BCA protein assay kit (Thermo Fisher Scientific; 23227), denaturation was performed using NuPAGE® LDS Sample Buffer (Thermo Fisher Scientific; NP0007), SDS-PAGE was performed on 3% to 8% NuPAGE® Novex Tris-Acetate Gel (Invitrogen; EA03785BOX), and the resultant was transferred onto a PVDF membrane (Millipore, Billerica, Mass., U.S.A.; IPVH304F0). […] After the antibody reaction, a band of interest was detected using the ECL Prime Western Blotting Detection Reagent (GE Healthcare, UK; RPN2232). […]

Cc1cc(C)cc(C(=O)NOCCCCCC(=O)NO)c1 [LMK-235]
degree of muscular differentiation evaluated in terms of the myosin heavy chain protein expression level by immunocytochemistry [1]: observed

CCCc1cc(C)[nH]c(=O)c1CNC(=O)c1cc(-c2ccnc(N3CCN(C)CC3)c2)cc2c1cnn2C(C)C [GSK343]
degree of muscular differentiation evaluated in terms of the myosin heavy chain protein expression level by immunocytochemistry [1]: observed

Cl.Cl.Nc1ncnc2c1ncn2[C@@H]1O[C@H](C(=O)N2CCN(CC(=O)Nc3cccc4c3CNC4=O)CC2)[C@@H](O)[C@H]1O [EB47]
degree of muscular differentiation evaluated in terms of the myosin heavy chain protein expression level by immunocytochemistry [1]: observed

Cl.Nc1nccc2c1ncn2[C@@H]1C=C(CO)[C@@H](O)[C@H]1O [DZNep, 3-deazaneplanocin A hydrochloride]
degree of muscular differentiation evaluated in terms of the myosin heavy chain protein expression level by immunocytochemistry [1]: high
dystrophin expression by Western blotting [2]: expressed at high levels
myosin heavy chain expression by Western blotting [2]: expressed at high levels

O=C(CCCCCCC(=O)Nc1ccccc1)NO [VORINOSTAT]
degree of muscular differentiation evaluated in terms of the myosin heavy chain protein expression level by immunocytochemistry [1]: observed

O=C(NCC(=O)N1CCCC1)Nc1ccc2cnccc2c1 [SGC707]
degree of muscular differentiation evaluated in terms of the myosin heavy chain protein expression level by immunocytochemistry [1]: observed

CCCc1cc2c(N3CCN(C4=NCC(C)(C)S4)CC3)ncnc2s1 [MI-2 (menin-MLL inhibitor)]
degree of muscular differentiation evaluated in terms of the myosin heavy chain protein expression level by immunocytochemistry [1]: observed

O=C(O)c1ccc(O)c2ncccc12 [IOX 1]
degree of muscular differentiation evaluated in terms of the myosin heavy chain protein expression level by immunocytochemistry [1]: observed

CCN(c1cc(-c2ccc(CN3CCOCC3)cc2)cc(C(=O)NCc2c(C)cc(C)[nH]c2=O)c1C)C1CCOCC1 [E7438]
degree of muscular differentiation evaluated in terms of the myosin heavy chain protein expression level by immunocytochemistry [1]: observed

Cc1cc(C)nc(SCC(=O)Nc2ncc(Cc3cccc4ccccc34)s2)n1 [SirReal 2]
degree of muscular differentiation evaluated in terms of the myosin heavy chain protein expression level by immunocytochemistry [1]: observed

O=C(O)CCNc1cc(N2CCc3ccccc3CC2)nc(-c2ccccn2)n1 [GSK-J1]
degree of muscular differentiation evaluated in terms of the myosin heavy chain protein expression level by immunocytochemistry [1]: observed

CC(C)(C)OC(=O)Nc1ccc(-c2cc(C(=O)NCCCCCCC(=O)NO)no2)cc1 [CAY10603]
degree of muscular differentiation evaluated in terms of the myosin heavy chain protein expression level by immunocytochemistry [1]: observed

O=C(NO)c1cccc(C(=O)NCCc2ccccc2)c1 [BRD73954]
degree of muscular differentiation evaluated in terms of the myosin heavy chain protein expression level by immunocytochemistry [1]: observed

UNC2327
degree of muscular differentiation evaluated in terms of the myosin heavy chain protein expression level by immunocytochemistry [1]: observed
